Structures are written as SMILES.

These results are taken from patent US11661413B2, “Pyrazole compounds or salts thereof, preparation method therefor, herbicidal composition and use thereof” (priority 2015, dated 2023).

One series concerns Wheat. The experiment in a line: post emergence stage greenhouse pot spray, wheat safety. Also: key: 10: completely dead; above 90% growth inhibition rate; above 80% growth inhibition rate; above 70% growth inhibition rate; above 60% growth inhibition rate; above 50% growth inhibition rate; 4: above 30% growth inhibition rate; above 30% growth inhibition rate; above 20% growth inhibition rate; above 1-10% growth inhibition rate; 0: no effect. Conditions: 16 g/mu, sprayed at 2-3 leaf stage, after 3 weeks. Format: in vivo. How it is done:
(§1) The activity level standard of harmful plant damage (i.e. growth inhibition rate) is as follows: The above described growth control rate is fresh weight control rate. Monocotyledonous and dicotyledonous weed seeds and main crop seeds (i.e. wheat, corn, rice, soybean, cotton, oilseed, millet and Sorghum) were put into a plastic pot loaded with soil. Then covered with 0.5-2 cm soil, the seeds were allowed to grow in good greenhouse environment. The test plants were treated at 2-3 leaf stage 2-3 weeks after sowing. […] The solution was sprayed to the plants with a sprayer. Then the plants were cultured for 3 weeks in the greenhouse.

Another series relates to Corn. Description: post emergence stage greenhouse pot spray, corn safety. Also: key: 10: completely dead; above 90% growth inhibition rate; above 80% growth inhibition rate; above 70% growth inhibition rate; above 60% growth inhibition rate; above 50% growth inhibition rate; 4: above 30% growth inhibition rate; above 30% growth inhibition rate; above 20% growth inhibition rate; above 1-10% growth inhibition rate; 0: no effect. In kind it is in vivo. Conditions: 16 g/mu, sprayed at 2-3 leaf stage, after 3 weeks. As for the experimental part: as §1
In series [1] the test system is Barnyard grass. The experiment in a line: weed control effect in transplanted rice field (pot, water application). As to conditions: 500 g a.i./ha, treated at 0.5 leaf stage, 14 days after treatment, naked eye, weed resistant to pyrazosulfuron-ethyl. Format: in vivo, Echinochloa. How it is done:
(§2) Rice field soil was loaded into a 1/1,000,000 ha pot. The seeds of Echinochloa, Scirpus juncoides, Bidens tripartite and Sagittaria trifolia were sowed and gently covered with soil, then left to stand still in greenhouse in the state of 0.5-1 cm of water storage. The tuber of Sagittaria trifolia was planted in the next day or 2 days later. It was kept at 3-4 cm of water storage thereafter. The weeds were treated by dripping the WP or SC water diluents prepared according to the common preparation method of the compounds of the present invention with pipette homogeneously to achieve specified effective amount when Echinochloa, Scirpus juncoides and Bidens tripartite reached 0.5 leaf stage and Sagittaria trifolia reached the time point of primary leaf stage.
(§3) The fertility condition of Echinochloa, Scirpus juncoides, Bidens tripartite and Sagittaria trifolia 14 days after the treatment of the compound of the invention and the fertility condition of rice 21 days after the treatment of the compound of the invention respectively with the naked eye.
(§4) Note: The seeds of barnyard grass, rushlike bulrush, arrowhead and beggartick are collected from Heilongjing Province of China. Tests indicate that the weeds are resistant to common application rate of pyrazosulfuron-ethyl.

Another series has as its system Flixweed. The experiment in a line: weed control effect in post emergence stage, greenhouse pot spray. In kind it is in vivo. Conditions: 16 g/mu, sprayed at 2-3 leaf stage, after 3 weeks. As for the experimental part:
as §1

Series [2] deals with Barnyard grass. Described as above. Format: in vivo. Conditions: sprayed at 2-3 leaf stage, after 3 weeks. How it is done: as §1
For a further series, the system named is Ning Jing 43. The experiment in a line: post emergence stage greenhouse pot spray, rice safety. On the set-up: key: 10: completely dead; above 90% growth inhibition rate; above 80% growth inhibition rate; above 70% growth inhibition rate; above 60% growth inhibition rate; above 50% growth inhibition rate; 4: above 30% growth inhibition rate; above 30% growth inhibition rate; above 20% growth inhibition rate; above 1-10% growth inhibition rate; 0: no effect. Format: in vivo. Conditions: sprayed at 2-3 leaf stage, after 3 weeks. As for the experimental part: as §1
The next series has as its system Arrowhead. The experiment in a line: weed control effect in transplanted rice field (pot, water application). Format: in vivo, Sagittaria trifolia. As to conditions: 500 g a.i./ha, treated at primary leaf stage, 14 days after treatment, naked eye, weed resistant to pyrazosulfuron-ethyl. How it is done:
as §2, §3, §4

In another series the test system is Rice. Description: transplanted rice safety evaluation. Format: in vivo. Conditions: transplanted 3 leaf stage japonica rice, 500 g a.i./ha, treated 5 days after transplantation, 21 days after treatment, naked eye. How it is done: In addition, the rice field soil that loaded into the 1/1,000,000 ha pot was leveled to keep water storage at 3-4 cm depth. The 3 leaf stage rice (japonica rice) was transplanted at 3 cm of transplanting depth the next day. The compound of the present invention was treated by the same way after 5 days of transplantation.
as §3

In a further series the test system is rushlike bulrush. Description: weed control effect in transplanted rice field (pot, water application). Conditions: 500 g a.i./ha, treated at 0.5 leaf stage, 14 days after treatment, naked eye, weed resistant to pyrazosulfuron-ethyl. Format: in vivo, Scirpus juncoides. As for the experimental part:
as §2, §3, §4

The subject of the next series is Beggartick. Described as above. In kind it is in vivo, Bidens tripartite. Conditions: 500 g a.i./ha, treated at 0.5 leaf stage, 14 days after treatment, naked eye, weed resistant to pyrazosulfuron-ethyl. As for the experimental part: as §2, §3, §4
For series [3], the system named is barnyard grass, rushlike bulrush, arrowhead and beggartick. Description: resistance tests of the weeds collected from Heilongjing Province. Format: in vivo. As to conditions: common application rate; seeds collected from Heilongjing Province of China.

With `CCOC(=O)Oc1c(C(=O)c2ccc(S(C)(=O)=O)c(Cn3cc(C)cn3)c2Cl)c(C)nn1C` [Compound 31], the “damage (activity level), Wheat” value in the series on Wheat turned out to be 0. In the series with Corn, the “damage (activity level), Corn” value is listed as 0. For the same compound, the “weed control effect (activity level), Barnyard grass” value was 10 with Barnyard grass [1]; 3 (above 30% growth inhibition rate) with Barnyard grass [2] (1 g/mu); 5 (above 50% growth inhibition rate) with Barnyard grass [2] (2 g/mu); 6 (above 60% growth inhibition rate) with Barnyard grass [2] (4 g/mu); 8 (above 80% growth inhibition rate) in the series with Barnyard grass [2] (8 g/mu); 9 (above 90% growth inhibition rate) in the series with Barnyard grass [2] (16 g/mu). Moreover, the “weed control effect (activity level), Flixweed” value in the series on Flixweed turned out to be 10. The “damage (activity level), Ning Jing 43” value in the series on Ning Jing 43 (1 g/mu), in the series on Ning Jing 43 (2 g/mu), in the series with Ning Jing 43 (4 g/mu), in the series on Ning Jing 43 (8 g/mu) and with Ning Jing 43 (16 g/mu) was 0 each time. Moreover, in the series with Arrowhead, the “weed control effect (activity level), Arrowhead” value was 9 (above 90% growth inhibition rate). Moreover, in the series on Rice, the “damage (activity level), Rice” value was 1 (above 1-10% growth inhibition rate). Moreover, in the series on rushlike bulrush, the “weed control effect (activity level), rushlike bulrush” value turned out to be 10. The “weed control effect (activity level), Beggartick” value with Beggartick was found to be 10.
On to `Cc1ccc(S(=O)(=O)Oc2c(C(=O)c3ccc(S(C)(=O)=O)c(Cn4nc(C)cc4C)c3Cl)c(C)nn2C)cc1` [Compound 33], for which, in the series with Wheat, the “damage (activity level), Wheat” value stood at 0. Further, the “damage (activity level), Corn” value with Corn was 0. The “weed control effect (activity level), Barnyard grass” value in the series on Barnyard grass [1] is 10; in the series on Barnyard grass [2] (1 g/mu), 4 (above 30% growth inhibition rate); in the series with Barnyard grass [2] (2 g/mu), 6 (above 60% growth inhibition rate); with Barnyard grass [2] (4 g/mu), 5 (above 50% growth inhibition rate); in the series on Barnyard grass [2] (8 g/mu), 7 (above 70% growth inhibition rate); in the series with Barnyard grass [2] (16 g/mu) it was 8 (above 80% growth inhibition rate). For the same compound, the “weed control effect (activity level), Flixweed” value in the series on Flixweed worked out at 10. In addition, the “damage (activity level), Ning Jing 43” value in the series with Ning Jing 43 (1 g/mu), with Ning Jing 43 (2 g/mu), in the series on Ning Jing 43 (4 g/mu), in the series with Ning Jing 43 (8 g/mu) and in the series on Ning Jing 43 (16 g/mu) was 0 in each case. Moreover, the “weed control effect (activity level), Arrowhead” value in the series with Arrowhead was found to be 10. Also, the “damage (activity level), Rice” value with Rice is 1 (above 1-10% growth inhibition rate). Besides, the “weed control effect (activity level), rushlike bulrush” value in the series with rushlike bulrush is 10. The “weed control effect (activity level), Beggartick” value in the series on Beggartick stood at 10.
Take `CCOC(=O)c1cnn(C)c1S(=O)(=O)NC(=O)Nc1nc(OC)cc(OC)n1` [pyrazosulfuron-ethyl]: the “resistance of the weeds (in words)” value in series [3] is “resistant”.
